In ChEMBL document CHEMBL3885881, “DrugMatrix”:

Species on record: Rattus norvegicus
Assay: DrugMatrix - Regimen: Daily Repeat
Format: toxicity, organism-based, Sprague-Dawley
Set-up: regimen Daily Repeat, gender Male, age 6-8 weeks
Details: in vivo, po, route oral GAVAGE, vehicle .5 % CMC; for ABSOLUTE BASOPHIL / BASOPHIL / EOSINOPHIL / ERYTHROCYTE COUNT / HEMATOCRIT / HEMOGLOBIN / LEUKOCYTE COUNT / LYMPHOCYTE / MEAN CORPUSCULAR HEMOGLOBIN / MEAN CORPUSCULAR HEMOGLOBIN CONCENTRATION / MEAN CORPUSCULAR VOLUME / MONOCYTE / NEUTROPHIL / PLATELET COUNT: tissue Blood; for ALANINE AMINOTRANSFERASE / ALBUMIN / ALKALINE PHOSPHATASE / ASPARTATE AMINOTRANSFERASE / BLOOD UREA NITROGEN / CHLORIDE / CHOLESTEROL / CREATINE PHOSPHOKINASE / CREATININE / GLUCOSE / PHOSPHORUS / POTASSIUM / SODIUM / TOTAL BILIRUBIN / TOTAL PROTEIN: tissue Plasma
[1] = 0 mg/kg, 72 h, dose level Control, time 3 day
[2] = 0 mg/kg, 120 h, dose level Control, time 5 day
[3] = 100 mg/kg, 72 h, dose level Low, time 3 day

With `CC[C@]1(O)CC[C@H]2[C@@H]3CCC4=CCCC[C@@H]4[C@H]3CC[C@@]21C` the ABSOLUTE BASOPHIL [1] was 16.7 cells/µL, the BASOPHIL [1] was 0.17% and the EOSINOPHIL [1] was 0.62%. The “ERYTHROCYTE COUNT” value [1] was 6.55 x10E6/uL, the HEMATOCRIT [1] was 42% and the HEMOGLOBIN [1] was 13.48 G/DL. For the same compound, the “LEUKOCYTE COUNT” value [1] was 8.79 x10E3/uL, the LYMPHOCYTE [1] was 76.98% and the “MEAN CORPUSCULAR HEMOGLOBIN” value [1] was 20.57 pg. For the same compound, the “MEAN CORPUSCULAR HEMOGLOBIN CONCENTRATION” value [1] was 32.08 G/DL, the “MEAN CORPUSCULAR VOLUME” value [1] was 64.1 fL and the MONOCYTE [1] was 2.12%. The NEUTROPHIL [1] was 19%, the “PLATELET COUNT” value [1] was 1432.17 x10E3/uL and the “ALANINE AMINOTRANSFERASE” value [1] was 42.83 u/L. The ALBUMIN [1] was 3.63 G/DL, the “ALKALINE PHOSPHATASE” value [1] was 328.5 u/L and the “ASPARTATE AMINOTRANSFERASE” value [1] was 78.33 u/L. For the same compound, the “BLOOD UREA NITROGEN” value [1] was 14.5 mg/dL, the CHLORIDE [1] was 104.5 MEQ/L and the CHOLESTEROL [1] was 78.67 mg/dL. The “CREATINE PHOSPHOKINASE” value [1] was 282.33 u/L, the CREATININE [1] was 0.25 mg/dL and the GLUCOSE [1] was 173.67 mg/dL. It also gave a PHOSPHORUS [1] of 12.83 mg/dL, a POTASSIUM [1] of 6.7 MEQ/L and an SODIUM [1] of 145.83 MEQ/L. The “TOTAL BILIRUBIN” value [1] was 0.4 mg/dL, the “TOTAL PROTEIN” value [1] was 5.93 G/DL and the ABSOLUTE BASOPHIL [2] was 28 cells/µL. For the same compound, the BASOPHIL [2] was 0.26%, the EOSINOPHIL [2] was 0.44% and the “ERYTHROCYTE COUNT” value [2] was 6.99 x10E6/uL. The HEMATOCRIT [2] was 45.12%, the HEMOGLOBIN [2] was 14.26 G/DL and the “LEUKOCYTE COUNT” value [2] was 9.42 x10E3/uL. For the same compound, the LYMPHOCYTE [2] was 79.92%, the “MEAN CORPUSCULAR HEMOGLOBIN” value [2] was 20.44 pg and the “MEAN CORPUSCULAR HEMOGLOBIN CONCENTRATION” value [2] was 31.62 G/DL. The “MEAN CORPUSCULAR VOLUME” value [2] was 64.6 fL, the MONOCYTE [2] was 2.2% and the NEUTROPHIL [2] was 16.14%. The “PLATELET COUNT” value [2] was 1062.2 x10E3/uL, the “ALANINE AMINOTRANSFERASE” value [2] was 44 u/L and the ALBUMIN [2] was 3.73 G/DL. For the same compound, the “ALKALINE PHOSPHATASE” value [2] was 342.6 u/L, the “ASPARTATE AMINOTRANSFERASE” value [2] was 74.17 u/L and the “BLOOD UREA NITROGEN” value [2] was 13 mg/dL. For the same compound, the CHLORIDE [2] was 103 MEQ/L, the CHOLESTEROL [2] was 72.83 mg/dL and the “CREATINE PHOSPHOKINASE” value [2] was 184.67 u/L. It also gave a CREATININE [2] of 0.47 mg/dL, a GLUCOSE [2] of 168.17 mg/dL and a PHOSPHORUS [2] of 12.27 mg/dL. The POTASSIUM [2] was 6.98 MEQ/L, the SODIUM [2] was 147 MEQ/L and the “TOTAL BILIRUBIN” value [2] was 0.65 mg/dL. The “TOTAL PROTEIN” value [2] was 6.23 G/DL, the ABSOLUTE BASOPHIL [3] was 23.3 cells/µL and the BASOPHIL [3] was 0.23%. The EOSINOPHIL [3] was 0.63%, the “ERYTHROCYTE COUNT” value [3] was 7.14 x10E6/uL and the HEMATOCRIT [3] was 43.57%. The HEMOGLOBIN [3] was 14.03 G/DL, the “LEUKOCYTE COUNT” value [3] was 12.51 x10E3/uL and the LYMPHOCYTE [3] was 79.1%. The “MEAN CORPUSCULAR HEMOGLOBIN” value [3] was 19.63 pg, the “MEAN CORPUSCULAR HEMOGLOBIN CONCENTRATION” value [3] was 32.2 G/DL and the “MEAN CORPUSCULAR VOLUME” value [3] was 61 fL. For the same compound, the MONOCYTE [3] was 2.57%, the NEUTROPHIL [3] was 16.13% and the “PLATELET COUNT” value [3] was 1395 x10E3/uL. For the same compound, the “ALANINE AMINOTRANSFERASE” value [3] was 38 u/L, the ALBUMIN [3] was 3.67 G/DL and the “ALKALINE PHOSPHATASE” value [3] was 426 u/L. For the same compound, the “ASPARTATE AMINOTRANSFERASE” value [3] was 66.33 u/L, the “BLOOD UREA NITROGEN” value [3] was 10.33 mg/dL and the CHLORIDE [3] was 103.33 MEQ/L. The CHOLESTEROL [3] was 51 mg/dL, the “CREATINE PHOSPHOKINASE” value [3] was 235.33 u/L and the CREATININE [3] was 0.33 mg/dL. It also gave a GLUCOSE [3] of 164.33 mg/dL, a PHOSPHORUS [3] of 12.4 mg/dL and a POTASSIUM [3] of 6.67 MEQ/L. For the same compound, the SODIUM [3] was 145 MEQ/L, the “TOTAL BILIRUBIN” value [3] was 0.47 mg/dL and the “TOTAL PROTEIN” value [3] was 6 G/DL.
